Laboratory results from ChEMBL document CHEMBL5365461, “Degradation of Cyclin-Dependent Kinase 9/Cyclin T1 by Optimized Microtubule-Associated Protein 1 Light Chain 3 Beta-Recruiting Coumarin Analogs” (J Med Chem, 2023).
Active and inactive are the calls of the source. The calls are words filed in the database; no cut-off is given here.

Key:
[1] = target: Cyclin-dependent kinase 9 (Homo sapiens) (UniProt P50750); test: Induction of CDK9 42 kDa degradation in human U2932 cells at 500 nM incubated for 12 hrs in presence of MLN4924 by immunoblotting analysis; assay type: cell-based
[2] = target: Cyclin-dependent kinase 9 (Homo sapiens) (UniProt P50750); test: Induction of CDK9 degradation in LC3B knockout HEK293T cells at 100 nM incubated for 24 hrs by immunoblotting analysis; assay type: cell-based
[3] = target: Cyclin-dependent kinase 9 (Homo sapiens) (UniProt P50750); test: Induction of CDK9 55 kDa degradation in human U2932 cells at 500 nM incubated for 12 hrs in presence of SNS-032 by immunoblotting analysis; assay type: cell-based
[4] = target: Cyclin-dependent kinase 9 (Homo sapiens) (UniProt P50750); test: Induction of CDK9 55 kDa degradation in human U2932 cells at 500 nM incubated for 12 hrs in presence of MG132 by immunoblotting analysis; assay type: cell-based
U2932 [5] = test: Downregulation of Mcl-1 protein level in human U2932 cells incubated for 6 hrs by RT-qPCR analysis; assay type: functional, cell-based; details: dose 10-1000 nM
[6] = target: Cyclin-dependent kinase 9 (Homo sapiens) (UniProt P50750); test: Induction of CDK9 42 kDa degradation in human U2932 cells at 500 nM incubated for 12 hrs in presence of SNS-032 by immunoblotting analysis; assay type: cell-based
[7] = Cmax in CD-1 mouse at 5 mg/kg, ip measured after 24 hrs by LC-MS/MS analysis; assay type: ADME, organism-based; set-up: dose 5 mg/kg, time 24 hrs, route ip; details: in vivo
[8] = target: Cyclin-dependent kinase 9 (Homo sapiens) (UniProt P50750); test: (§1) Inhibition of GST-fused human full-length CDK9 (1 to 372(end) residues)/N-terminal GST-fused His-tagged human full-length CyclinT1 (1 to 726(end) residues) expressed in baculovirus expression system at 10 nM using CDK7/9 tide as substrate incubated for 120 mins in presence of ATP by ADP-Glo Kinase assay relative to control
KP-4 = test: Cytotoxicity against human KP-4 cells assessed as inhibition of cell growth measured after 72 hrs by CCK-8 assay; assay type: functional, cell-based
[9] = target: Cyclin-dependent kinase 9 (Homo sapiens) (UniProt P50750); test: Induction of CDK9 42 kDa degradation in human U2932 cells at 500 nM incubated for 12 hrs in presence of BafA1 by Co-immunoprecipitation analysis; assay type: cell-based
[10] = target: Cyclin-dependent kinase 9 (Homo sapiens) (UniProt P50750); test: Induction of CDK9 55 kDa degradation in human U2932 cells at 100 nM by immunoblotting analysis; assay type: cell-based; details: time 1-24 hrs, TDE = time-dependent effect
[11] = target: Cyclin-dependent kinase 9 (Homo sapiens) (UniProt P50750); test: Induction of CDK9 55 kDa degradation in human U2932 cells at 500 nM incubated for 12 hrs in presence of MLN4924 by immunoblotting analysis; assay type: cell-based
U2932 [12] = test: Downregulation of RNAP2 phosphorylation at serine 2 residue in human U2932 cells at 10 to 1000 nM incubated for 6 hrs by immunoblotting analysis; assay type: functional, cell-based; details: dose 10-1000 nM
HCT-116 = test: Cytotoxicity against human HCT-116 cells assessed as inhibition of cell growth measured after 72 hrs by CCK-8 assay; assay type: functional, cell-based
[13] = Oral bioavailability in CD-1 mouse at 5 mg/kg measured after 24 hrs by LC-MS/MS analysis; assay type: ADME, organism-based; details: in vivo
[14] = Half life in CD-1 mouse at 1 mg/kg, iv measured after 24 hrs by LC-MS/MS analysis; assay type: ADME, organism-based; details: in vivo
MV4-11 [15] = test: Induction of apoptosis in human MV4-11 cells at 1000 nM incubated for 24 hrs by AnnexinV-FITC/PI staining based flow cytometry analysis; assay type: functional, cell-based
[16] = Observed clearance in CD-1 mouse at 1 mg/kg, iv measured after 24 hrs by LC-MS/MS analysis; assay type: ADME, organism-based; details: in vivo
U2932 [17] = test: Induction of apoptosis in human U2932 cells assessed as necrotic cells at 1000 nM incubated for 24 hrs by AnnexinV-FITC/PI staining based flow cytometry analysis (reference value: 0.92%); assay type: functional
[18] = target: Cyclin-dependent kinase 9 (Homo sapiens) (UniProt P50750); test: Induction of CDK9 55 kDa degradation in human U2932 cells by immunoblotting analysis; assay type: cell-based; details: dose 1-1000 nM
U2932 [19] = test: Induction of apoptosis in human U2932 cells assessed as viable cells at 1000 nM incubated for 24 hrs by AnnexinV-FITC/PI staining based flow cytometry analysis (reference value: 86.9%); assay type: functional; details: read-out: Activity
[20] = target: Cyclin-dependent kinase 9 (Homo sapiens) (UniProt P50750); test: Induction of CDK9 55 kDa degradation in human U2932 cells at 500 nM incubated for 12 hrs in presence of 5,7-Dihydroxy-4-methylcoumarin by immunoblotting analysis; assay type: cell-based
[21] = target: Cyclin-dependent kinase 9 (Homo sapiens) (UniProt P50750); test: Induction of CDK9 42 kDa degradation in human U2932 cells at 500 nM incubated for 12 hrs in presence of 5,7-Dihydroxy-4-methylcoumarin by immunoblotting analysis; assay type: cell-based
[22] = target: Cyclin-dependent kinase 9 (Homo sapiens) (UniProt P50750); test: Induction of CDK9 55 kDa degradation in human U2932 cells at 500 nM incubated for 12 hrs in presence of BafA1 by immunoblotting analysis; assay type: cell-based
A2780 = test: Cytotoxicity against human A2780 cells assessed as inhibition of cell growth measured after 72 hrs by CCK-8 assay; assay type: functional, cell-based
U2932 [23] = test: Cytotoxicity against human U2932 cells assessed as inhibition of cell growth measured after 72 hrs by CCK-8 assay; assay type: functional, cell-based; details: U2932, 72 h
[24] = target: Cyclin-dependent kinase 9 (Homo sapiens) (UniProt P50750); test: Induction of CDK9 42 kDa degradation in human U2932 cells at 500 nM incubated for 12 hrs in presence of HCQ by immunoblotting analysis; assay type: cell-based
MV4-11 [25] = test: Downregulation of Mcl-1 protein level in human MV4-11 cells incubated for 6 hrs by RT-qPCR analysis; assay type: functional, cell-based; details: dose 10-1000 nM
MV4-11 [26] = test: Downregulation of c-Myc protein level in human MV4-11 cells incubated for 6 hrs by RT-qPCR analysis; assay type: functional, cell-based; details: dose 10-1000 nM
[27] = target: Cyclin-dependent kinase 9 (Homo sapiens) (UniProt P50750); test: as §1, with “100” for “10”
[28] = target: Cyclin-dependent kinase 9 (Homo sapiens) (UniProt P50750); test: Induction of CDK9 42 kDa degradation in human U2932 cells at 500 nM incubated for 12 hrs in presence of BafA1 by immunoblotting analysis; assay type: cell-based
[29] = target: Cyclin-dependent kinase 9 (Homo sapiens) (UniProt P50750); test: Induction of CDK9 42 kDa degradation in human U2932 cells by immunoblotting analysis; assay type: cell-based; details: dose 1-1000 nM
[30] = AUC(0 to t) in CD-1 mouse at 5 mg/kg, ip measured after 24 hrs by LC-MS/MS analysis; assay type: ADME, organism-based; set-up: dose 5 mg/kg, time 24 hrs, route ip; details: in vivo
[31] = target: Cyclin-dependent kinase 9 (Homo sapiens) (UniProt P50750); test: Induction of CDK9 55 kDa degradation in human U2932 cells assessed as maximal efficacy at 1 to 1000 nM by immunoblotting analysis relative to control; assay type: cell-based; details: dose 1-1000 nM
[32] = AUC(0 to t) in CD-1 mouse at 1 mg/kg, iv measured after 24 hrs by LC-MS/MS analysis; assay type: ADME, organism-based; set-up: time 24 hrs, dose 1 mg/kg, route iv; details: in vivo
U2932 [33] = test: Induction of apoptosis in human U2932 cells assessed as early apoptotic cells at 1000 nM incubated for 24 hrs by AnnexinV-FITC/PI staining based flow cytometry analysis (reference value: 6.20%); assay type: functional
[34] = Observed MRTinfinity in CD-1 mouse at 5 mg/kg, ip measured after 24 hrs by LC-MS/MS analysis; assay type: ADME, organism-based; details: in vivo
U2932 [35] = test: Downregulation of RNAP2 phosphorylation at serine 5 residue in human U2932 cells at 10 to 1000 nM incubated for 6 hrs by immunoblotting analysis; assay type: functional, cell-based; details: dose 10-1000 nM
[36] = Volume of distribution at steady state in CD-1 mouse at 1 mg/kg, iv measured after 24 hrs by LC-MS/MS analysis; assay type: ADME, organism-based; details: in vivo, read-out: Vdss

Cyclin-dependent kinase 9 (Homo sapiens), sequence (P50750 whole entry, the tested form may be a part): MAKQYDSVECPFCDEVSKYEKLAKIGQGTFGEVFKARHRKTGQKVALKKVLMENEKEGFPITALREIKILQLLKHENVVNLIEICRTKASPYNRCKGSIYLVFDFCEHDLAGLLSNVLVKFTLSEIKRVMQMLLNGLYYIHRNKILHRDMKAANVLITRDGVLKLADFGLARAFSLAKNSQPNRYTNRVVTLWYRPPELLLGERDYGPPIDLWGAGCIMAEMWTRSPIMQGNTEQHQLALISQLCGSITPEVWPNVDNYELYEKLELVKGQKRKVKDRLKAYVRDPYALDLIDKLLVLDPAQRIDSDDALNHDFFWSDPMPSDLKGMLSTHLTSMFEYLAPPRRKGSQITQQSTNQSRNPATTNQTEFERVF

Row | Structure (SMILES) | Activity [1] | Activity [2] | Activity [3] | Activity [4] | Activity (U2932 [5]) | Activity [6] | Cmax [7] | inhibition [8] | Activity (KP-4) | Activity [9] | Activity [10] | Activity [11] | Activity (U2932 [12]) | Activity (HCT-116) | bioavailability [13] | half-life [14] | Activity (MV4-11 [15]) | clearance [16] | Activity (U2932 [17]) | Activity [18] | also measured
1 | Cc1cc(=O)oc2cc(OCCCN3CCC(C(=O)Nc4ncc(SCc5ncc(C(C)(C)C)o5)s4)CC3)cc(O)c12 | Active | inactive | inactive | Active | Active | inactive | 88.6 ng/mL | 1% | Active | Active | Tde | Active | Active | Active | 24.6% | 1.03 h | Active | 140 mL/min/kg | 2.08% | Dose-Dependent Effect | viability at 1 µM (U2932 [19]): 47.4%; Activity [20]: inactive; Activity [21]: inactive; Activity [22]: inactive; Activity (A2780): Active; IC50 (U2932 [23]): 45 nM; Activity [24]: inactive; Activity (MV4-11 [25]): Dose-Dependent Effect; Activity (MV4-11 [26]): Dose-Dependent Effect; inhibition [27]: 65%; Activity [28]: inactive; Activity [29]: Dose-Dependent Effect; AUC(0-t) at 24 h [30]: 143 ng·h/mL; Emax [31]: 46%; AUC(0-t) at 24 h [32]: 116 ng·h/mL; Activity (U2932 [33]): 11.8%; MRT inf [34]: 3.84 h; Activity (U2932 [35]): inactive; Vd [36]: 5.7 L/kg
2 | Cc1cc(=O)oc2cc(O)cc(OCCCCCN3CCC(C(=O)Nc4ncc(SCc5ncc(C(C)(C)C)o5)s4)CC3)c12 | Active | inactive | inactive | Active | Active | inactive | 88.4 ng/mL | 1% | Active | Active | Tde | Active | Active | Active | 43.1% | 1.97 h | Active | 229 mL/min/kg | 2.12% | Dose-Dependent Effect | viability at 1 µM (U2932 [19]): 41.8%; Activity [20]: inactive; Activity [21]: inactive; Activity [22]: inactive; Activity (A2780): Active; IC50 (U2932 [23]): 45 nM; Activity [24]: inactive; Activity (MV4-11 [25]): Dose-Dependent Effect; Activity (MV4-11 [26]): Dose-Dependent Effect; inhibition [27]: 54%; Activity [28]: inactive; Activity [29]: Dose-Dependent Effect; AUC(0-t) at 24 h [30]: 156 ng·h/mL; Emax [31]: 54.8%; AUC(0-t) at 24 h [32]: 72.3 ng·h/mL; Activity (U2932 [33]): 15.2%; MRT inf [34]: 4.17 h; Activity (U2932 [35]): inactive; Vd [36]: 10.5 L/kg
